“Also recorded” adds a separate entry of the source.
Test system: Sprague_Dawley/Crl:CD (SD)IGS BR rats
Assay: Liver histopathology of treated rats
Assay type: in vivo, rat
Conditions: 1400 mg/kg oral gavage, 24 hours
Procedure: Four control rats were administered a quantity of methylcellulose vehicle (no acetaminophen) having a volume approximately equal to that received by treated rats. After 24 hours, all rats were euthanized and livers were collected by necropsy. At necropsy, blood samples were collected via the vena cava (approximately 0.5 ml) in microtainer tubes. All livers were then fixed in 10% neutral buffered formalin and processed for histopathology by trimming trimmed, dehydrating, embedding in paraffin, sectioning, mounting on glass slides, and staining with hematoxylin and eosin stains.
Microscopically, there was a moderate centrilobular degeneration which was multifocal in two of the animals and was characterized by hepatocellular degeneration and necrosis, edema fluid, hemorrhages, and infiltration of mononuclear cells and occasional neutrophils in the other two animals. The severity and distribution of the microscopic lesions correlated well with the measured increases in ALT, AST, 5′NT, and albumin RT-PCR.

Hepatocellular Degeneration (individual rats (animals 1-4)): Diffuse; also recorded: Multifocal
SMILES: CC(=O)Nc1ccc(O)cc1 [acetaminophen]
Histopathological analysis of liver (four rats): moderate levels of damage

From patent US7968291B2, “RNA bioassay” (The Hamner Institute for Health Sciences, priority 2002, dated 2011)
